Two compounds from patent US20080311103A1, “Anti-Inflammatory Peptides and Methods of Use Thereof” (YEDA RESEARCH AND DEVELOPMENT CO. LTD. at THE WEIZMANN …, priority 2004, published 2008) can be followed below.

Like-named read-outs stand apart in the source and are kept apart here.

The subject of assay [1] is BALB/C mice. Description: TNBS-induced colitis model of inflammatory bowel disease (IBD). The conditions noted are these: 200 μg/mouse SC daily; day 7 after TNBS. The assay is classed as in vivo, mouse. The procedure:
BALB/C mice, which were anesthetized for 5-10 min, received by intrarectal administration, 30 μl of a solution of 2,4,6-trinitrobenzene sulfonic acid (TNBS; 100 mg/kg) dissolved in 0.9% NaCl and mixed with an equal volume of ethanol (50% ethanol). Animals were killed 7 days after TNBS administration.
Wound fluid peptides were administered once daily by subcutaneous (SC) administration starting 1 day before the induction of colitis and every day for the next 7 days as follows:
Treatment with the wound fluid peptides was evaluated at day 7 by determination of macroscopic inflammation scores. The colon of each mouse was examined under a dissecting microscope to evaluate the macroscopic lesions according to the Wallace criteria. The Wallace score lists macroscopic colon lesions on a scale from 0 to 10 based on features reflecting inflammation, such as hyperemia, thickening of the bowel, and extent of ulceration (Wallace, J. L., et al. 1989, Gastroenterology, 96:29).

Assay [2] deals with mice sensitized with oxazolone. The assay is classed as in vivo, mouse. The conditions noted are these: ear measured 24 hours after oxazolone challenge, BALB/c mice. As to the method: Groups of 5 female inbred BALB/c mice (The Jackson Laboratory, Bar Harbor, Me.) were sensitized on the shaved abdominal skin with 2% oxazolone (100 μl) dissolved in acetone/olive oil [4:1 (vol/vol)] applied topically. Delayed type hypersensitivity (DTH) was elicited 5 days later by challenging the mice with 0.5% oxazolone in acetone/olive oil (10 μl given topically to each side of the ear). A constant area of the ear was measured immediately before and 24 hours after the challenge using a Mitutoyo engineer's micrometer. The percent inhibition of DTH is calculated as follows:
% Inhibition=[1-{(treated−negative control)/(positive control−negative control)}]×100.
The positive control is the DTH reaction to oxazolone elicited in sensitized mice without treatment. The negative control is the background swelling produced by the oxazolone antigen in naïve non-sensitized mice.
Peptides Nos. 1-5 were given to the mice by mini perfusion pumps (alzet osmotic pump model 2001), which contained the indicated peptide (40 μg; 200 μl). The pumps were implanted under the mouse skin one day before oxazolone sensitization and they released the peptide in a rate of 1 μl per hour (0.2 μg/hour) for 7 days.
Peptides Nos. 6-10 were given to the mice by subcutaneously injection (1 μg or 10 μg per mouse), every day, starting at one day before oxazolone sensitization and ending at day 5 post DTH initiation.

The next assay deals with Jurkat and THP-1 cells. The assay can be described thus: TNFα secretion by PMA/PHA induced Jurkat and THP-1 cells. The conditions noted are these: peptide 1 μg/ml; 48 hours; ELISA. The assay is classed as cell-based, human. The procedure:
Jurkat cells human T cell lymphoma line) (2×10^6 cells/ml) cultured in RPMI-1640 supplemented with 10% FCS were activated with PMA (50 ng/ml) and phytohaemagglutinin PHA (4 µg/ml) for 6 hours at 37° C. (7.5% CO2-humidified atmosphere). Thereafter, the cells were washed, plated on 24-well plates (10^6 cells/well in 0.5 ml), and incubated (1 hour at 37° C., 7.5% CO2-humidified atmosphere) with the indicated concentrations of peptides 1-5. Following the incubation, THP-1 cells (human monocytic cell line derived from a patient with acute monocytic leukaemia; 1.25×10^5 cells/0.5 ml/well) were added to the wells. After 48 hours, the supernatants were collected and their TNF[…] content was determined by ELISA using anti TNF[…] mAb (Pharmingen; San Diego, Calif.) according to the manufacturer's instructions.
On the technique in general: In an ELISA, binding on a coated surface is turned into a signal by an enzyme label.

Assay [3] relates to anti-CD3 antibody induced IFNγ secretion from T cells. The assay can be described thus: IFNγ secretion by anti-CD3 activated T cells. The assay is classed as cell-based, human. More on the design: concentration or dose not given beside the values. The conditions noted are these: 24 hours; ELISA; FIG. 7B. The procedure: (§1) Human T cells were purified and maintained in culture (RPMI containing 10% FCS, 1% Pyruvate, 1% glutamine, 1% antibiotics, 7.5% CO2, humidified atmosphere) for 15 hr before they were transferred to RPMI and activated (2 hr, 37° C.) with the indicated concentrations of the peptides. The cells were then plated (1.5×10^6 cells/0.5 ml/well) in 24 wells plates (non-tissue culture grade) precoated with anti-CD3 mAb in order to stimulate the cells to secrete cytokines. After 24 hours, the supernatants were collected and their cytokine content (TNFα and IFNγ) was determined by ELISA using anti-IFNγ and anti TNFα mAb (Pharmingen; San Diego, Calif.) according to the manufacturer's instructions.

For a further assay, the system named is NF-κB. Description: Nuclear translocation of NF-κB in T cells (Western blot). The format is cell-based. The conditions noted are these: peptide 100 ng/ml for 2 hours, then anti-CD3 mAb 24 hr; human T cells. The text has this:
To address the modulatory role of the wound fluid peptides on the signal transduction cascade leading to regulation of T-cell secretion of TNF-α(and IFN-γ, the nuclear translocation of NF-κB was detected by probing nuclear and cytoplasmic T-cell extracts using mAb specific for the p65 subunit of NF-κB. The nuclear protein Lamin B was used as continuatively expressed control protein for the quantification of protein amounts.
Human T cells. T cells were purified from the peripheral blood of healthy human donors (Blood Bank; Tel-Hashomer, Israel). The whole blood was incubated (20 min, 22° C.) with RosetteSep™ human T-cell enrichment cocktail (StemCell Technologies, Vancouver, BC, Canada). The remaining unsedimented cells were then loaded onto Lymphocyte Separation Medium (ICN Biomedicals; Belgium), isolated by density centrifugation, and washed with PBS. The purified cells (>95% CD3^+ T cells) so obtained were cultured in RPMI containing antibiotics and 10% heat-inactivated FCS. Western blot analysis of T-cell nuclear extracts. Purified T cells (5×10^6) were preincubated with the peptides (100 ng/ml) for 2 hours (37° C. in a 7% CO2, humidified atmosphere). The cells were then replated in 24-well plates pre-coated with anti-CD3 mAb for 24 hr (37° C. in a 7% CO2, humidified atmosphere). T cells were lysed in 10 mM HEPES, 1.5 mM MgCl2, 1 mM dithiothreitol (DTT), 1 mM PMSF, 0.5% Nonidet P-40. The lysates were incubated on ice for 10 min and centrifuged at 2000 rpm for 10 min at 4° C. The supernatants (cytoplasmic extracts) were transferred and the pellet (nuclei) was suspended in buffer containing 30 mM HEPES, 450 mM NaCl, 25% Glycerol, 0.5 mM EDTA, 6 mM DTT, 12 mM MgCl2 1 mM PMSF, 10 μg/ml leupeptin, 10 μg/ml pepstatin, 1% phosphatase inhibitor cocktail, and the suspension was incubated on ice for 30 min. The lysates were cleared by centrifugation (30 min, 14×10^3 rpm, 4° C.), and the resulting supernatants analyzed for protein content. […]
In general terms: Immunoblotting shows a protein as a band on a membrane.

The next assay has as its system T cells. Description: Chemotaxis assay: T cell migration toward SDF-1α. The assay is classed as cell-based. The conditions noted are these: concentration range 10-1000 ng/ml; SDF-1α 250 ng/ml; 3 hr. As to the method:
The migration of ^51-[Cr]-labeled T cells was examined in […] Transwell chemotaxis apparatus (6.5-mm diameter; Corning, N.Y.), consisting of two compartments separated by polycarbonate filters (5 μm pore size) pretreated (1 hr, 37° C.) with FN (25 μg/ml). ^51-[Cr]-labeled T cells (2×10^5 in 100 μl of RPMI containing 0.1% BSA and antibiotics), which were pre-incubated with the indicated concentrations of peptides (30 min, 37° C.), were added to the upper chambers. The bottom chambers contained 0.6 ml of the same media, with or without human Stromal cell-Derived Factor-1α (SDF-1α; 250 ng/ml). After incubation at 37° C. for 3 hr (7.5% CO2-humidified atmosphere), cells that had transmigrated into the lower wells were collected, centrifuged, and lysed (in 100 μl of distilled water containing 1 M NaOH and 0.1% Triton X-100), and the radioactivity in the resulting supernatants was determined with a γ-counter. The percentage (±SD) of cell migration was calculated as the radioactivity counts in the lysates of the lower chambers (representative of the migrating cells) divided by the total counts (representative of 2×10^5 cells).

In assay [4] the test system is anti-CD3 antibody induced TNFα secretion from T cells. Description: TNFα secretion by anti-CD3 activated T cells. The format is cell-based, human. The conditions noted are these: peptide 100 ng/ml; 24 hours; ELISA; FIG. 7A. As to the method:
as §1

Assay [5] concerns BALB/C mice. Description: Con A-induced hepatic injury (acute hepatitis model). The conditions noted are these: 50 μg/mouse intraperitoneally, 2 or 3 injections before ConA, especially after 3 treatments; FIG. 10B. The assay is classed as in vivo. The procedure: Con A (13 mg/kg) was administered i.v. to BALB/c mice 18 hours before analysis (Bonder, C. S. et al. 2004. J. Immunol. 172: 45-53). Mice were intraperitoneally injected with the peptides of the invention 48 and 2 hours before ConA injection.
Blood analysis: 18 hours after Con A injection, blood was obtained by cardiac puncture for detection of serum alanine aminotransferase (ALT) and aspartate aminotransferase (AST). The presence of these two enzymes in serum is used as an index of hepatocellular injury. The detection of ALT and AST was performed by a commercial kit for ALT and AST (Bayer Diagnostics, Tarry town, NY, USA) using an automated Monarch Monoanalyzer 2000 (Allied, Lexington, Mass.).

Setting [6] is: FIG. 1, peptides by implanted osmotic pump, 0.2 μg/hour for 7 days.

Consider `C[C@@H]1C[C@H]2[C@@H]3CCC4=CC(=O)C=C[C@]4(C)[C@@]3(F)[C@@H](O)C[C@]2(C)[C@@]1(O)C(=O)CO` [Dexamethasone, reference compound], for which the “Wallace score (macroscopic inflammation score, scale 0 to 10)” value in the assay with BALB/C mice [1] amounted to 2.9±1. For the same compound, the “inhibition of DTH response” value in assay [2] (setting [6]) was about 70%; in assay [2] (FIG. 2, peptides subcutaneously 1 μg or 10 μg per mouse every day) it was about 70%.

Take “LSALEEYTKKLNTQ [peptide No. 2, residues 254-267 of Apo A-I; identified in wound fluids, then synthesized]”: the “inhibition of TNFα secretion by Jurkat and THP-1 cells compared to PMA/PHA alone” value with Jurkat and THP-1 cells amounted to 10%. The “inhibition of anti-CD3 antibody induced IFNγ secretion from T cells” value in assay [3] is reported as about 30%. Further, the “NF-κB translocation to the nucleus” value with NF-κB was “significant down-regulation”. Also, the “inhibition of T cell transmigration toward SDF-1α” value in the assay on T cells was “did not show a significant inhibition”. In addition, the “inhibition of anti-CD3 antibody induced TNFα secretion from T cells” value in assay [4] amounted to 40%. For the same compound, in the assay on BALB/C mice [5], the “resistance to ConA induced hepatitis” value is reported as “marked resistance”. In assay [2] (setting [6]), the “inhibition of DTH response” value was “hardly inhibited”.
